Test results taken from ChEMBL document CHEMBL4007488, “Amphiphilic Indole Derivatives as Antimycobacterial Agents: Structure-Activity Relationships and Membrane Targeting Properties” (J Med Chem, 2017).
In brackets after ≈: the same amount, converted by molar mass. Activity calls are given as the source filed them. The rule behind the calls is not given here.

Tests used:
[1] = test system: Mycobacterium tuberculosis variant bovis; assay: Antimycobacterial activity against Mycobacterium bovis BCG ATCC 35734 assessed as membrane depolarization at 200 uM by DiOC2-based fluorescence assay relative to control; format: functional, Mycobacterium tuberculosis variant bovis BCG
[2] = test system: Mycobacterium tuberculosis variant bovis; assay: Antimycobacterial activity against Mycobacterium bovis BCG ATCC 35734 after 5 days by broth dilution method; format: functional; details: ATCC 35734, 120 h
[3] = test system: Mycobacterium tuberculosis variant bovis; assay: Induction of cell envelope stress in clgR-pspA expressing Mycobacterium bovis BCG ATCC 35734 co-expressing RFP assessed as increase in clgR promoter gene activity at compound MIC50 after 24 hrs by fluorescence assay relative to control; format: functional, Mycobacterium tuberculosis variant bovis BCG
[4] = test system: Mycobacterium tuberculosis variant bovis; assay: Antimycobacterial activity against Mycobacterium bovis BCG ATCC 35734 assessed as membrane depolarization at 12 uM by DiOC2-based fluorescence assay; format: functional; details: TDE = time-dependent effect
[5] = test system: Mycobacterium tuberculosis variant bovis; assay: Bactericidal activity against Mycobacterium bovis BCG ATCC 35734 assessed as reduction in colony forming units at 1.6 uM measured daily over 5 days of compound treatment by time kill assay; format: functional
[6] = test system: Mycobacterium tuberculosis variant bovis; assay: Antimycobacterial activity against Mycobacterium bovis BCG ATCC 35734 using middlebrook 7H9 broth media supplemented with 10 % fetal bovine serum after 5 days by broth dilution method; format: functional; details: ATCC 35734, 120 h
[7] = test system: Mycobacterium tuberculosis variant bovis; assay: Induction of cell envelope stress in iniBAC expressing Mycobacterium bovis BCG ATCC 35734 co-expressing RFP assessed as increase in iniBAC promoter gene activity at compound MIC50 after 24 hrs by fluorescence assay relative to control; format: functional, Mycobacterium tuberculosis variant bovis BCG
[8] = test system: Mycobacterium tuberculosis variant bovis; assay: Antimycobacterial activity against Mycobacterium bovis BCG ATCC 35734 up to 4 times MIC90 after 8 weeks; format: functional
[9] = test system: Mycobacterium tuberculosis variant bovis; assay: Bactericidal activity against Mycobacterium bovis BCG ATCC 35734 assessed as 1000 fold kill under low-oxygen tension conditions by time kill assay; format: functional, Mycobacterium tuberculosis variant bovis BCG
[10] = test system: Mycobacterium tuberculosis variant bovis; assay: Antimycobacterial activity against Mycobacterium bovis BCG ATCC 35734 assessed as increase in permeabilized cells at 12 uM by propidium iodide-staining based FACS analysis; format: functional, cell-based; details: TDE = time-dependent effect
[11] = test system: Mycobacterium tuberculosis variant bovis; assay: Antimycobacterial activity against Mycobacterium bovis BCG ATCC 35734 in presence of menaquinone; format: functional
[12] = test system: Mycobacterium tuberculosis variant bovis; assay: Antimycobacterial activity against Mycobacterium bovis BCG ATCC 35734 assessed as growth inhibition at 10 uM after 5 days relative to control; format: functional; details: ATCC 35734, 120 h, read-out: GI
[13] = test system: Mycobacterium tuberculosis variant bovis; assay: Antimycobacterial activity against Mycobacterium bovis BCG ATCC 35734 assessed as increase in permeabilized cells at 1.6 uM measured daily over 5 days of compound treatment by propidium iodide-staining based FACS analysis; format: functional, cell-based
[14] = test system: Mycobacterium tuberculosis variant bovis; assay: Antimycobacterial activity against Mycobacterium bovis BCG ATCC 35734 assessed as membrane depolarization at 1.6 uM measured daily over 5 days of compound treatment by DiOC2-based fluorescence assay; format: functional
[15] = test system: Mycobacterium tuberculosis variant bovis; assay: Bactericidal activity against Mycobacterium bovis BCG ATCC 35734 assessed as reduction in colony forming units measured on day 4 by time kill assay; format: functional; details: ATCC 35734, 96 h, read-out: MBC99.9
[16] = test system: Mycobacterium tuberculosis variant bovis; assay: Antimycobacterial activity against Mycobacterium bovis BCG ATCC 35734 using middlebrook 7H9 broth media after 5 days by broth dilution method; format: functional; details: ATCC 35734, 120 h

## N#CC(C#N)=NNc1cccc(Cl)c1 [CARBONYL CYANIDE M-CHLOROPHENYLHYDRAZONE]
[1]
  Activity: 90%

## CCCCCCCCn1cc(CN2CCCCCC2)c2c(F)cccc21
[2]
  MIC50: 2 µM (≈ 0.717 µg/mL)
  MIC90: 6 µM (≈ 2.15 µg/mL)
[3]
  fold change (FC): 5
[4]
  Activity: Tde
[5]
  Activity: Active
[6]
  MIC50: 4.5 µM (≈ 1.61 µg/mL)
[7]
  fold change (FC): 10
[8]
  Activity: Active
[9]
  WCC99.9: 12 to 24 µM
[10]
  Activity: Tde
[11]
  Activity: Active
[12]
  inhibition of growth at 10 µM: 99%
[13]
  Activity: Active
[14]
  Activity: Active
[15]
  MBC: 12 µM (≈ 4.3 µg/mL)
[16]
  MIC50: 5 µM (≈ 1.79 µg/mL)

## NNC(=O)c1ccncc1
[8]
  Activity: inactive

## CCCCCCCCn1cc(CN2CCC(C)CC2)c2cccc(F)c21
[2]
  MIC50: 4 µM (≈ 1.43 µg/mL)
  MIC90: 6 µM (≈ 2.15 µg/mL)
[12]
  inhibition of growth at 10 µM: 99%

## CCCN(C)Cc1cn(C/C=C(\C)CCC=C(C)C)c2ccc(F)cc12
[2]
  MIC50: 13 µM (≈ 4.63 µg/mL)
  MIC90: 28.5 µM (≈ 10.2 µg/mL)
[12]
  inhibition of growth at 10 µM: 99%

## Fc1ccc2c(c1)c(CN1CCCCC1)cn2CCC1CCCCC1
[2]
  MIC50: 17 µM (≈ 5.82 µg/mL)
  MIC90: 27 µM (≈ 9.25 µg/mL)
[12]
  inhibition of growth at 10 µM: 99%

## CC(C)=CCC/C(C)=C/Cn1cc(CN2CCN(C)CC2)c2cc(F)ccc21
[2]
  MIC50: 15 µM (≈ 5.75 µg/mL)
  MIC90: 23 µM (≈ 8.82 µg/mL)
[12]
  inhibition of growth at 10 µM: 99%

## CC(C)=CCC/C(C)=C/Cn1cc(CN(C)C)c2cc(F)ccc21
[2]
  MIC50: 14.5 µM (≈ 4.76 µg/mL)
  MIC90: 25 µM (≈ 8.21 µg/mL)
[12]
  inhibition of growth at 10 µM: 99%

## CCCCCCCCn1cc(CN2CCCCC2)c2c(F)cccc21
[2]
  MIC50: 6 µM (≈ 2.07 µg/mL)
  MIC90: 11 µM (≈ 3.79 µg/mL)
[12]
  inhibition of growth at 10 µM: 99%

## CCCCCCCCn1cc(CNC23CC4CC(CC(C4)C2)C3)c2cccc(F)c21
[2]
  MIC50: 3 µM (≈ 1.23 µg/mL)
  MIC90: 5 µM (≈ 2.05 µg/mL)
[12]
  inhibition of growth at 10 µM: 99%

## CCCCCCCCn1cc(CN2CCCCCC2)c2cc(F)ccc21
[2]
  MIC50: 4 µM (≈ 1.43 µg/mL)
  MIC90: 6 µM (≈ 2.15 µg/mL)
[12]
  inhibition of growth at 10 µM: 99%

## CC(C)=CCC/C(C)=C/Cn1cc(CNC2CCCCCC2)c2cc(F)ccc21
[2]
  MIC50: 45 µM (≈ 17.8 µg/mL)
  MIC90: 50 µM (≈ 19.8 µg/mL)
[12]
  inhibition of growth at 10 µM: 99%

## CCCCCCCCn1cc(CN2CCC(C)CC2)c2cc(OC)ccc21
[2]
  MIC50: 4 µM (≈ 1.48 µg/mL)
  MIC90: 6 µM (≈ 2.22 µg/mL)
[12]
  inhibition of growth at 10 µM: 99%

## CCCCCCCCn1cc(CNC(C)C)c2cc(F)ccc21
[2]
  MIC50: 12 µM (≈ 3.82 µg/mL)
  MIC90: 26 µM (≈ 8.28 µg/mL)
[12]
  inhibition of growth at 10 µM: 99%

## CCCCCCCCn1cc(CN2CCC(C)CC2)c2ccc(F)cc21
[2]
  MIC50: 4 µM (≈ 1.43 µg/mL)
  MIC90: 5 µM (≈ 1.79 µg/mL)
[12]
  inhibition of growth at 10 µM: 99%

## CCCN(CCC)Cc1cn(C/C=C(\C)CCC=C(C)C)c2ccc(F)cc12
[2]
  MIC50: 18 µM (≈ 6.92 µg/mL)
  MIC90: 39 µM (≈ 15 µg/mL)
[12]
  inhibition of growth at 10 µM: 99%

## CC(C)=CCC/C(C)=C/Cn1cc(CN2CCCCC2)c2cc(Cl)ccc21
[2]
  MIC50: 7 µM (≈ 2.69 µg/mL)
  MIC90: 10 µM (≈ 3.85 µg/mL)
[12]
  inhibition of growth at 10 µM: 99%

## CCCCCCCCn1cc(CNC2CCCCCC2)c2cc(F)ccc21
[2]
  MIC50: 3 µM (≈ 1.12 µg/mL)
  MIC90: 16 µM (≈ 5.96 µg/mL)
[12]
  inhibition of growth at 10 µM: 99%

## Fc1ccc2c(c1)c(CN1CCCCC1)cn2CCCc1ccccc1
[2]
  MIC50: 10 µM (≈ 3.5 µg/mL)
  MIC90: 20 µM (≈ 7.01 µg/mL)
[12]
  inhibition of growth at 10 µM: 99%

## CCCCCCCCn1cc(CN2CCC(C)CC2)c2c(F)cccc21
[2]
  MIC50: 2 µM (≈ 0.717 µg/mL)
  MIC90: 5 µM (≈ 1.79 µg/mL)
[12]
  inhibition of growth at 10 µM: 99%

## CCCCCCCCn1cc(CN2CCCCC2)c2ccccc21
[2]
  MIC50: 14 µM (≈ 4.57 µg/mL)
  MIC90: 31 µM (≈ 10.1 µg/mL)
[12]
  inhibition of growth at 10 µM: 99%

## CCCCCCCCn1cc(CN(C)CCC)c2cc(F)ccc21
[2]
  MIC50: 12 µM (≈ 3.99 µg/mL)
  MIC90: 35 µM (≈ 11.6 µg/mL)
[12]
  inhibition of growth at 10 µM: 99%

## CCCCCCCCn1cc(CN2CCC3(CC2)OCCO3)c2ccc(OC)cc21
[2]
  MIC50: 2 µM (≈ 0.829 µg/mL)
  MIC90: 4 µM (≈ 1.66 µg/mL)
[6]
  MIC50: 2.5 µM (≈ 1.04 µg/mL)
[12]
  inhibition of growth at 10 µM: 99%
[16]
  MIC50: 2.1 µM (≈ 0.871 µg/mL)

## CC(C)=CCC/C(C)=C/Cn1cc(CN2CCCCC2)c2cc(F)ccc21
[2]
  MIC50: 5 µM (≈ 1.84 µg/mL)
  MIC90: 11 µM (≈ 4.05 µg/mL)
[12]
  inhibition of growth at 10 µM: 99%

## CCCCCCCCn1cc(CN2CCC(C)CC2)c2cccc(OC)c21
[2]
  MIC50: 4 µM (≈ 1.48 µg/mL)
  MIC90: 8 µM (≈ 2.96 µg/mL)
[12]
  inhibition of growth at 10 µM: 99%

## CCCCCCCCn1cc(CNC23CC4CC(CC(C4)C2)C3)c2cc(OC)ccc21
[2]
  MIC50: 3 µM (≈ 1.27 µg/mL)
  MIC90: 5 µM (≈ 2.11 µg/mL)
[12]
  inhibition of growth at 10 µM: 99%

## CC(C)=CCC/C(C)=C/Cn1cc(CNC2CCCC2)c2cc(F)ccc21
[2]
  MIC50: 8 µM (≈ 2.95 µg/mL)
  MIC90: 14 µM (≈ 5.16 µg/mL)
[12]
  inhibition of growth at 10 µM: 99%

## N#CCCCn1cc(CN2CCCCC2)c2cc(F)ccc21
[2]
  MIC50: > 50 µM
  MIC90: > 50 µM
[12]
  inhibition of growth at 10 µM: 99%

## Fc1ccc2c(c1)c(CN1CCCCC1)cn2Cc1ccccc1
[2]
  MIC50: 35 µM (≈ 11.3 µg/mL)
  MIC90: > 50 µM
[12]
  inhibition of growth at 10 µM: 99%

## CC(C)=CCC/C(C)=C/Cn1cc(CN2CCC(C)CC2)c2cc(F)ccc21
[2]
  MIC50: 4 µM (≈ 1.53 µg/mL)
  MIC90: 6 µM (≈ 2.3 µg/mL)
[12]
  inhibition of growth at 10 µM: 99%

## CCCCCCCCn1cc(CNC2CC2)c2cc(F)ccc21
[2]
  MIC50: 11 µM (≈ 3.48 µg/mL)
  MIC90: 27 µM (≈ 8.54 µg/mL)
[12]
  inhibition of growth at 10 µM: 99%

## CC(C)=CCC/C(C)=C/Cn1cc(CN2CCSCC2)c2cc(F)ccc21
[2]
  MIC50: 15 µM (≈ 5.8 µg/mL)
  MIC90: 23 µM (≈ 8.89 µg/mL)
[12]
  inhibition of growth at 10 µM: 99%

## CCCCCCCCn1cc(CN2CCC(C)CC2)c2c(OC)cccc21
[2]
  MIC50: 10 µM (≈ 3.71 µg/mL)
  MIC90: 18 µM (≈ 6.67 µg/mL)
[12]
  inhibition of growth at 10 µM: 99%

## COc1ccc2c(c1)c(CN1CCCCC1)cn2C/C=C(\C)CCC=C(C)C
[2]
  MIC50: 9 µM (≈ 3.43 µg/mL)
  MIC90: 12 µM (≈ 4.57 µg/mL)
[12]
  inhibition of growth at 10 µM: 99%

## CCCCCCCCn1cc(CNC23CC4CC(CC(C4)C2)C3)c2cc(F)ccc21
[2]
  MIC50: 2.5 to 3 µM (≈ 1.03 to 1.23 µg/mL)
  MIC90: 5.5 to 6 µM (≈ 2.26 to 2.46 µg/mL)
[12]
  inhibition of growth at 10 µM: 99%
